The record followed here is patent publication US7074801B1, “Nitrogen-containing condensed cyclic compound having a pyrazolyl group as a substituent group and pharmaceutical composition thereof” (Eisai Co., Ltd., priority 2001, dated 2006).

Counter-ions that a name gives are not always drawn. Bounds are passed on as bounds.

The subject of the assay is STAT6. Briefly: Inhibitory test on STAT6 activation: IL-4-induced alkali phosphatase STAT6 reporter in 293 cells stably expressing the STAT6 gene and STAT6 reporter gene. It is filed as cell-based. The following applies: HEK293; Table 1; 1 ng/ml human recombinant IL-4, 16 hours, 293 cells with STAT6 reporter; read-out: Inhibitory activity IC50 (concentration at which the alkali phosphatase activity induced by IL-4 was inhibited by 50%). How it is done:
The inhibitory action of the present compound on activation of STAT6 was evaluated according to the following experiments.
1) Construction of a STAT6 Reporter Gene
An oligonucleotide of SEQ ID NO:1 in which three STAT6-binding regions on a human immunoglobulin germline E gene promoter had been linked was mixed with its complementary chain, thermally denatured and annealed, and 5′- and 3′-ends thereof were cleaved with restriction enzymes Kpn I (Code No. 1068A, Takara Shuzo) and Xba I (Code No. 1093A, Takara Shuzo) respectively, and the resulting fragment was cloned into a Kpn I/Xba I site of pUG-BGH-PLAP vector (described in Molecular Pharmacology, 49:860–873, 1996). To induce a basic transcriptional factor, a TK promoter region of herpes virus was cloned into an Xba I/Hind III (Code No. 1060A, Takara Shuzo) site of the pUG-BGH-PLAP vector. To obtain a stably expressing cell strain, a neomycin resistance gene (PGK-neo expression cassette) was integrated with an Sal I (Code No. 1080A, Takara Shuzo) of this vector. Cloning of the TK promoter and PGK-neo expression cassette was carried out according to Molecular Pharmacology, 49:860–873, 1996.
The underlined sites are a Kpn I recognition site and Xba I recognition site respectively. 2) Construction of an STAT6 Expression Vector
An oligonucleotide of SEQ ID NO:2 containing an initiation codon of STAT6 gene and an oligonucleotide of SEQ ID NO:3 containing a stop codon were used, and total RNA was prepared from human peripheral blood cells by using RNeasy Mini kit (Code No. 74104, OIAGEN). Then, cDNA was prepared by reverse transcription reaction using Takara RNA LA PCR kit (Code No. RR012A, Takara Shuzo) and then subjected to PCR reaction with primers of SEQ ID NOS:2 and 3, to amplify the STAT6 gene. • (SEQ ID NO:2) 5′-[…]-3′ The underlined site is an EcoR I recognition site. • (SEQ ID NO:3) 5′-[…]-3′ The underlined site is an Xho I recognition site.
The PCR product was digested with EcoR I (Code No. 1040A, Takara Shuzo) and Xho I (1094A, Takara Shuzo), and the digested fragment was isolated on an agarose gel. The isolated fragment was integrated into a vector fragment obtained by digesting pcDNA3.1 (+) (Code No. U790-20, Invitrogen) vector with EcoRI/Xho I.
3) Introduction of the Gene and Preparation of a Stably Expressing Cell Strain
Human fetal kidney-derived 293 cells (American Type Culture Collection), 3.0×10^5 cells, were spread on a Falcon tissue culture 6-well plate (Code No. 35-3046, Becton Dickinson) and cultured overnight. 1.5 μg of the prepared STAT6 reporter gene, 1.5 μg of the STAT6 gene and 20 μl of lipofectamine (Code No. 18324-012, GIBCO BRL) were mixed in 0.3 ml OPTI-MEM medium (Code No. 31985-070) and left at room temperature for 20 minutes. Thereafter, 1.2 ml OPTI-MEM medium was further added to the cells washed with OPTI-MEM medium not containing fetal bovine serum, and the cells were cultured for 2 hours. 1.5 ml medium containing fetal bovine serum was added thereto, and the cells were cultured for additional 19 hours. The medium was exchanged with a fresh one, and Geneticin (Code No. G-5013, SIGMA) was added at a concentration of 1 mg/ml, and the cells were cultured, and chemical-resistant cells were selected. The resulting chemical-resistant cells were floated in a medium containing 1 mg/ml Geneticin, then spread at a density of 0.5 cell/well on a 96-well microplate (Code No. 35-3072, Becton Dickinson) and cloned to give a clone expressing alkali phosphatase in response to IL-4.
4) Inhibitory Test on STAT6 Activation
The cells stably expressing the STAT6 gene and STAT6 reporter gene and expressing alkali phosphatase in response to IL-4 were spread at a density of 5000 cells/180 μl/well on a 96-well microplate (Code No. 35-3072, Becton Dickinson) and cultured overnight. […]
For orientation: In a reporter assay the amount or activity of a reporter protein is the signal.

`c1ccc(-c2cnc3ccc(-c4c[nH]nc4-c4ccc(N5CCOCC5)cc4)cn23)nc1` [Example 539, 6-[3-(4-Morpholine-4-ylphenyl)-1H-pyrazol-4-yl]-3-(pyridin-2-yl)imidazo[1,2-a]pyridine]: the IC50 was below 10 nM.

In the case of `CS(=O)(=O)c1cnc(-c2cnc3ccc(-c4c[nH]nc4-c4c(F)cccc4F)cn23)s1` [Example 549, 6-[3-(2,6-Difluorophenyl)-1H-pyrazol-4-yl]-3-(5-methylsulfonylthiazol-2-yl)imidazo[1,2-a]pyridine], the IC50 was below 10 nM.

With `CSc1nnc(-c2cnc3ccc(-c4c[nH]nc4-c4ccc(F)cc4)cn23)o1` [Example 555, 6-[3-(4-Fluorophenyl)-1H-pyrazol-4-yl]-3-(5-methylsulfanyl[1,3,4]oxadiazol-2-yl)imidazo[1,2-a]pyridine], the IC50 was below 10 nM.

Consider `Fc1ccc(-c2n[nH]cc2-c2ccc3ncc(-c4nnc(C5CC5)s4)n3c2)c(F)c1` [Example 556, 3-(5-Cyclopropyl[1,3,4]thiadiazol-2-yl)6-[3-(2,4-difluorophenyl)-1H-pyrazol-4-yl]imidazo[1,2-a]pyridine], for which the IC50 was below 10 nM.

On to `Fc1ccc(-c2n[nH]cc2-c2ccc3ncc(-c4nnc(C5CC5)o4)n3c2)c(F)c1` [Example 557, 3-(5-Cyclopropyl[1,3,4]oxadiazol-2-yl)6-[3-(2,4-difluorophenyl)-1H-pyrazol-4-yl]imidazo[1,2-a]pyridine], for which the IC50 is below 10 nM.

In the case of `CNc1nnc(-c2cnc3ccc(-c4c[nH]nc4-c4ccc(F)cc4F)cn23)o1` [Example 561], the IC50 is below 10 nM.

Regarding `COc1nnc(-c2cnc3ccc(-c4c[nH]nc4-c4ccc(F)cc4F)cn23)s1` [Example 562, 6-[3-(2,4-Fluorophenyl)-1H-pyrazol-4-yl]-3-(5-methoxy[1,3,4]thiadiazol-2-yl)imidazo[1,2-a]pyridine], the IC50 is below 10 nM.

Consider `Fc1ccc(-c2n[nH]cc2-c2ccc3ncc(-c4noc(C5CC5)n4)n3c2)c(F)c1` [Example 576, 3-(5-Cyclopropyl-[1,2,4]oxadiazol-3-yl)-6-[3-(2,4-difluorophenyl)-1H-4-pyrazolyl]-imidazo[1,2-a]pyridine trihydrochloride], for which the IC50 was below 10 nM.

Consider `COc1ccc(-c2n[nH]cc2-c2ccc3ncc(-c4noc(C5CC5)n4)n3c2)c(F)c1` [Example 580, 3-(5-Cyclopropyl-[1,2,4]oxadiazol-3-yl)-6-[3-(2-fluoro-4-methoxyphenyl)-1H-4-pyrazolyl]-imidazo[1,2-a]pyridine trihydrochloride], for which the IC50 was below 10 nM.

As to `Fc1ccccc1-c1n[nH]cc1-c1ccc2ncc(-c3noc(C4CC4)n3)n2c1` [Example 583, 3-(5-Cyclopropyl-[1,2,4]oxadiazol-3-yl)-6-[3-(2-fluorophenyl)-1H-4-pyrazolyl]-imidazo[1,2-a]pyridine trihydrochloride], the IC50 was below 10 nM.

As for `Fc1cc(OC2CCCC2)ccc1-c1n[nH]cc1-c1ccc2ncc(-c3noc(C4CC4)n3)n2c1` [Example 584, 6-[3-(4-Cyclopentyloxy-2-fluorophenyl)-1H-4-pyrazolyl]-3-(5-cyclopropyl-[1,2,4]oxadiazol-3-yl)-imidazo[1,2-a]-pyridine trihydrochloride], the IC50 is below 10 nM.

As for `Fc1ccc(-c2n[nH]cc2-c2ccc3ncc(-c4noc(C(F)F)n4)n3c2)c(F)c1` [Example 589, 6-[3-(2,4-Difluorophenyl)-1H-4-pyrazolyl]-3-(5-difluoromethyl-[1,2,4]oxadiazol-3-yl)-imidazo[1,2-a]-pyridine trihydrochloride], the IC50 was below 10 nM.

Regarding `CC(C)=Cc1nc(-c2cnc3ccc(-c4c[nH]nc4-c4ccccc4F)cn23)no1` [Example 592], the IC50 is below 10 nM.

As for `O=C1CCCN1Cc1nc(-c2cnc3ccc(-c4c[nH]nc4-c4ccccc4F)cn23)no1` [Example 596, 1-(3-{6-[3-(2-Fluorophenyl)-1H-4-pyrazolyl]-imidazo[1,2-a]-pyridin-3-yl}-[1,2,4]oxadiazol-5-ylmethyl)-pyrrolidin-2-one di-trifluoroacetate], the IC50 is below 10 nM.

For `CN(C)Cc1nc(-c2cnc3ccc(-c4c[nH]nc4-c4ccccc4F)cn23)no1` [Example 598, (3-{6-[3-(2-Fluorophenyl)-1H-4-pyrazolyl]-imidazo[1,2-a]-pyridin-3-yl}-[1,2,4]oxadiazol-5-ylmethyl)dimethylamine tri-trifluoroacetate], the IC50 is below 10 nM.

Take `Fc1cccc(F)c1-c1n[nH]cc1-c1ccc2ncc(-c3noc(CCC(F)(F)F)n3)n2c1` [Example 601, 3-[5-(3,3,3-Trifluoropropyl)-[1,2,4]oxadiazol-3-yl]-6-[3-(2,6-difluorophenyl)-1H-4-pyrazolyl]-imidazo[1,2-a]pyridine]: the IC50 was below 10 nM.

On to `CC(C)c1nc(-c2cnc3ccc(-c4c[nH]nc4-c4ccccc4F)cn23)no1` [Example 605, 6-[3-(2-Fluorophenyl)-1H-4-pyrazolyl]-3-(5-isopropyl-[1,2,4]oxadiazol-3-yl)-imidazo[1,2-a]pyridine trihydrochloride], for which the IC50 is below 10 nM.

On to `COc1ccc(-c2cnc3ccc(-c4c[nH]nc4-c4ccc(F)cc4)cn23)cc1F` [Example 622, 3-(3-Fluoro-4-methoxyphenyl)-6-[3-(4-fluorophenyl)-1H-4-pyrazolyl]imidazo[1,2-a]pyridine hydrochloride], for which the IC50 was below 10 nM.

Regarding `O=C1CCc2cc(-c3cnc4ccc(-c5c[nH]nc5-c5ccc(F)cc5)cn34)ccc21` [Example 623, 5-{6-[3-(4-Fluorophenyl)-1H-4-pyrazolyl]imidazo[1,2-a]pyridin-3-yl}-1-indanone], the IC50 was below 10 nM.

As for `N#CCCCS(=O)(=O)c1ccc(-c2cnc3ccc(-c4c[nH]nc4-c4ccc(F)cc4)cn23)s1` [Example 626, 4-[(5-{6-[3-(4-Fluorophenyl)-1H-4-pyrazolyl]imidazo[1,2-a]pyridin-3-yl}-2-thienyl)sulfonyl]butane nitrile hydrochloride], the IC50 is below 10 nM.

As for `N#CCC[C@H](O)c1nc2ccc(-c3cnc4ccc(-c5c[nH]nc5-c5ccc(F)cc5)cn34)cc2s1` [Example 628, (4S)-4-(6-{6-[3-(4-Fluorophenyl)-1H-4-pyrazolyl]imidazo-[1,2-a]pyridin-3-yl)-1,3-benzothiazol-2-yl)-4-hydroxybutane nitrile dihydrochloride], the IC50 was below 10 nM.

As for `Cc1csc(NC(=O)c2ccc(-c3cnc4ccc(-c5cn[nH]c5)cn34)cc2)n1` [Example 629, N1-(4-Methyl-1,3-thiazol-2-yl)-4-[6-(1H-4-pyrazolyl)-imidazo[1,2-a]pyridin-3-yl]benzamide dihydrochloride], the IC50 was below 10 nM.

On to `Cc1n[nH]cc1-c1ccc2ncc(-c3ccc(S(=O)(=O)N(C)c4ccc(Cl)cc4)cc3)n2c1` [Example 632, N1-(4-Chlorophenyl)-N1-methyl-4-[6-(3-methyl-1H-4-pyrazolyl)imidazo[1,2-a]pyridin-3-yl]-1-benzene sulfonamide], for which the IC50 was in the range of 10 to 100 nM.

Consider `Cc1n[nH]cc1-c1ccc2ncc(-c3ccc(C(=O)NN4CCCCC4)c(F)c3)n2c1` [Example 644, N1-Piperidino-2-fluoro-4-[6-(3-methyl-1H-4-pyrazolyl)-imidazo[1,2-a]pyridin-3-yl] benzamide dihydrochloride], for which the IC50 was below 10 nM.
